From ChEMBL document CHEMBL3112480, “γ-Alkylidene-γ-lactones and isobutylpyrrol-2(5H)-ones analogues to rubrolides as inhibitors of biofilm formation by gram-positive and gram-negative bacteria” (Bioorg Med Chem Lett, 2014)
In brackets after ≈: the same amount, converted by molar mass. Blank lines part the entries; values can stand above or below the compound they belong to.

How the values were obtained:
[1] = test system: Staphylococcus epidermidis; assay: Antibacterial activity against Staphylococcus epidermidis ATCC 35547 assessed as effect on planktonic growth at 43.8 ug/ml after 20 hrs relative to control; format: functional
[2] = test system: Pseudomonas aeruginosa; assay: Antibacterial activity against Pseudomonas aeruginosa ATCC 27853 assessed as effect on planktonic growth at 21.9 ug/ml after 20 hrs relative to control; format: functional
[3] = test system: Staphylococcus aureus; assay: Antibacterial activity against Staphylococcus aureus ATCC 25923 assessed as effect on planktonic growth at 0.68 ug/ml after 20 hrs relative to control; format: functional
[4] = test system: Pseudomonas aeruginosa; assay: Antibacterial activity against Pseudomonas aeruginosa ATCC 27853 assessed as effect on planktonic growth at 10.9 ug/ml after 20 hrs relative to control; format: functional
[5] = test system: Staphylococcus aureus; assay: Antibacterial activity against Staphylococcus aureus ATCC 25923 assessed as effect on planktonic growth at 2.73 ug/ml after 20 hrs relative to control; format: functional
[6] = test system: Staphylococcus aureus; assay: Antibacterial activity against Staphylococcus aureus ATCC 25923 assessed as effect on planktonic growth at 5.5 ug/ml after 20 hrs relative to control; format: functional
[7] = test system: Staphylococcus epidermidis; assay: Antibacterial activity against Staphylococcus epidermidis ATCC 35547 assessed as effect on planktonic growth at 5.5 ug/ml after 20 hrs relative to control; format: functional
[8] = test system: Streptococcus mutans; assay: Antibacterial activity against Streptococcus mutans ATCC 25175 assessed as effect on planktonic growth at 5.5 ug/ml after 20 hrs relative to control; format: functional
[9] = test system: Staphylococcus epidermidis; assay: Antibacterial activity against Staphylococcus epidermidis ATCC 35547 assessed as effect on planktonic growth at 87.5 ug/ml after 20 hrs relative to control; format: functional
[10] = test system: Streptococcus mutans; assay: Antibacterial activity against Streptococcus mutans ATCC 25175 assessed as effect on planktonic growth at 0.34 ug/ml after 20 hrs relative to control; format: functional
[11] = test system: Pseudomonas aeruginosa; assay: Antibacterial activity against Pseudomonas aeruginosa ATCC 27853 assessed as effect on planktonic growth at 5.5 ug/ml after 20 hrs relative to control; format: functional
[12] = test system: Pseudomonas aeruginosa; assay: Antibacterial activity against Pseudomonas aeruginosa ATCC 27853 assessed as effect on planktonic growth at 0.34 ug/ml after 20 hrs relative to control; format: functional
[13] = test system: Staphylococcus aureus; assay: Antibacterial activity against Staphylococcus aureus ATCC 25923 assessed as effect on planktonic growth at 87.5 ug/ml after 20 hrs relative to control; format: functional
[14] = test system: Staphylococcus epidermidis; assay: Antibacterial activity against Staphylococcus epidermidis ATCC 35547 assessed as effect on planktonic growth at 0.34 ug/ml after 20 hrs relative to control; format: functional
[15] = test system: Streptococcus mutans; assay: Antibacterial activity against Streptococcus mutans ATCC 25175 assessed as effect on planktonic growth at 21.9 ug/ml after 20 hrs relative to control; format: functional
[16] = test system: Pseudomonas aeruginosa; assay: Antibacterial activity against Pseudomonas aeruginosa ATCC 27853 assessed as effect on planktonic growth at 0.17 ug/ml after 20 hrs relative to control; format: functional
[17] = test system: Streptococcus mutans; assay: Antibacterial activity against Streptococcus mutans ATCC 25175 assessed as effect on planktonic growth at 0.68 ug/ml after 20 hrs relative to control; format: functional
[18] = test system: Staphylococcus aureus; assay: Antibacterial activity against Staphylococcus aureus ATCC 25923 assessed as effect on planktonic growth at 1.37 ug/ml after 20 hrs relative to control; format: functional
[19] = test system: Staphylococcus epidermidis; assay: Antibacterial activity against Staphylococcus epidermidis ATCC 35547 assessed as inhibition of biofilm formation after 20 hrs by crystal-violet staining method; format: functional, organism-based; details: for IC50: ATCC 35547, 20 h
[20] = test system: Pseudomonas aeruginosa; assay: Antibacterial activity against Pseudomonas aeruginosa ATCC 27853 assessed as effect on planktonic growth at 2.73 ug/ml after 20 hrs relative to control; format: functional
[21] = test system: Pseudomonas aeruginosa; assay: Antibacterial activity against Pseudomonas aeruginosa ATCC 27853 assessed as effect on planktonic growth at 0.68 ug/ml after 20 hrs relative to control; format: functional
[22] = test system: Streptococcus mutans; assay: Antibacterial activity against Streptococcus mutans ATCC 25175 assessed as effect on planktonic growth at 43.8 ug/ml after 20 hrs relative to control; format: functional
[23] = test system: Pseudomonas aeruginosa; assay: Antibacterial activity against Pseudomonas aeruginosa ATCC 27853 assessed as effect on planktonic growth at 43.8 ug/ml after 20 hrs relative to control; format: functional
[24] = test system: Staphylococcus aureus; assay: Antibacterial activity against Staphylococcus aureus ATCC 25923 assessed as effect on planktonic growth at 43.8 ug/ml after 20 hrs relative to control; format: functional
[25] = test system: Staphylococcus epidermidis; assay: Antibacterial activity against Staphylococcus epidermidis ATCC 35547 assessed as effect on planktonic growth at 21.9 ug/ml after 20 hrs relative to control; format: functional
[26] = test system: Pseudomonas aeruginosa; assay: Antibacterial activity against Pseudomonas aeruginosa ATCC 27853 assessed as effect on planktonic growth at 1.37 ug/ml after 20 hrs relative to control; format: functional
[27] = test system: Staphylococcus aureus; assay: Antibacterial activity against Staphylococcus aureus ATCC 25923 assessed as effect on planktonic growth at 10.9 ug/ml after 20 hrs relative to control; format: functional
[28] = test system: Streptococcus mutans; assay: Antibacterial activity against Streptococcus mutans ATCC 25175 assessed as effect on planktonic growth at 2.73 ug/ml after 20 hrs relative to control; format: functional
[29] = test system: Staphylococcus aureus; assay: Antibacterial activity against Staphylococcus aureus ATCC 25923 assessed as effect on planktonic growth at 0.17 ug/ml after 20 hrs relative to control; format: functional
[30] = test system: Streptococcus mutans; assay: Antibacterial activity against Streptococcus mutans ATCC 25175 assessed as effect on planktonic growth at 0.17 ug/ml after 20 hrs relative to control; format: functional
[31] = test system: Pseudomonas aeruginosa; assay: Antibacterial activity against Pseudomonas aeruginosa ATCC 27853 assessed as inhibition of biofilm formation after 20 hrs by crystal-violet staining method; format: functional, organism-based
[32] = test system: Streptococcus mutans; assay: Antibacterial activity against Streptococcus mutans ATCC 25175 assessed as effect on planktonic growth at 87.5 ug/ml after 20 hrs relative to control; format: functional
[33] = test system: Staphylococcus aureus; assay: Antibacterial activity against Staphylococcus aureus ATCC 25923 assessed as effect on planktonic growth at 0.34 ug/ml after 20 hrs relative to control; format: functional
[34] = test system: Staphylococcus epidermidis; assay: Antibacterial activity against Staphylococcus epidermidis ATCC 35547 assessed as effect on planktonic growth at 1.37 ug/ml after 20 hrs relative to control; format: functional
[35] = test system: Staphylococcus epidermidis; assay: Antibacterial activity against Staphylococcus epidermidis ATCC 35547 assessed as effect on planktonic growth at 0.17 ug/ml after 20 hrs relative to control; format: functional
[36] = test system: Streptococcus mutans; assay: Antibacterial activity against Streptococcus mutans ATCC 25175 assessed as effect on planktonic growth at 10.9 ug/ml after 20 hrs relative to control; format: functional
[37] = test system: Streptococcus mutans; assay: Antibacterial activity against Streptococcus mutans ATCC 25175 assessed as effect on planktonic growth at 1.37 ug/ml after 20 hrs relative to control; format: functional
[38] = test system: Staphylococcus epidermidis; assay: Antibacterial activity against Staphylococcus epidermidis ATCC 35547 assessed as effect on planktonic growth at 0.68 ug/ml after 20 hrs relative to control; format: functional
[39] = test system: Staphylococcus epidermidis; assay: Antibacterial activity against Staphylococcus epidermidis ATCC 35547 assessed as effect on planktonic growth at 10.9 ug/ml after 20 hrs relative to control; format: functional
[40] = test system: Pseudomonas aeruginosa; assay: Antibacterial activity against Pseudomonas aeruginosa ATCC 27853 assessed as effect on planktonic growth at 87.5 ug/ml after 20 hrs relative to control; format: functional
[41] = test system: Staphylococcus epidermidis; assay: Antibacterial activity against Staphylococcus epidermidis ATCC 35547 assessed as effect on planktonic growth at 2.73 ug/ml after 20 hrs relative to control; format: functional
[42] = test system: Staphylococcus aureus; assay: Antibacterial activity against Staphylococcus aureus ATCC 25923 assessed as effect on planktonic growth at 21.9 ug/ml after 20 hrs relative to control; format: functional

IC50 [19]: 23 µg/mL (≈ 47.9 µM)
SMILES: COc1ccccc1C1=C(Br)C(=O)N(CC(C)C)/C1=C\c1ccc(C(F)(F)F)cc1
Activity [1]: 37.8%
Activity [2]: 53.2%
Activity [3]: -18.1%
Activity [4]: 35.6%
Activity [5]: -35.6%
Activity [6]: -33.5%
Activity [7]: -14.8%
Activity [8]: -3%
Activity [9]: -6.3%
Activity [10]: 0.6%
Activity [11]: -1.7%
Activity [12]: -1.7%
Activity [13]: 1.8%
Activity [14]: -17%
Activity [15]: -11.6%
Activity [16]: -2.1%
Activity [17]: 5.5%
Activity [18]: -30.9%
inhibition [19]: Dose-dependent effect
Activity [20]: -9.2%
Activity [21]: 0.1%
Activity [22]: -13.5%
Activity [23]: 44%
Activity [24]: -15.4%
Activity [25]: 38.7%
Activity [26]: -5.9%
Activity [27]: -33.8%
Activity [28]: 14%
Activity [29]: -5.8%
Activity [30]: 0.3%
inhibition [31]: Dose-dependent effect
Activity [32]: 3.6%
Activity [33]: -14.7%
Activity [34]: -17.9%
Activity [35]: -22.1%
Activity [36]: -12.9%
Activity [37]: 10.7%
Activity [38]: -13.2%
Activity [39]: 6.6%
Activity [40]: 35.2%
Activity [41]: -21.2%
Activity [42]: -29.3%

IC50 [19]: 41 µg/mL (≈ 86 µM)
IC50 ([31]; ATCC 27853, 20 h): > 87.5 µg/mL
SMILES: COc1cccc(/C=C2/C(c3cc(Cl)ccc3OC)=C(Br)C(=O)N2CC(C)C)c1
Activity [1]: 24.6%
Activity [2]: -10%
Activity [3]: -9.6%
Activity [4]: -15.5%
Activity [5]: -13.7%
Activity [6]: -3.5%
Activity [7]: -2.3%
Activity [8]: 2.6%
Activity [9]: 35.5%
Activity [10]: -18.2%
Activity [11]: -9.1%
Activity [12]: 2.8%
Activity [13]: 13%
Activity [14]: -0.7%
Activity [15]: 6.2%
Activity [16]: 3.2%
Activity [17]: -17.3%
Activity [18]: -5.7%
inhibition [19]: Dose-dependent effect
Activity [20]: 0.2%
Activity [21]: 1%
Activity [22]: 12.3%
Activity [23]: -8.9%
Activity [24]: -11.3%
Activity [25]: 11.3%
Activity [26]: 0.8%
Activity [27]: -7.2%
Activity [28]: -6.5%
Activity [29]: -2.6%
Activity [30]: -19.6%
inhibition [31]: Dose-dependent effect
Activity [32]: 30.8%
Activity [33]: -3%
Activity [34]: -2.6%
Activity [35]: 5.8%
Activity [36]: 1.2%
Activity [37]: -4.4%
Activity [38]: 5.5%
Activity [39]: 0.9%
Activity [40]: -2.1%
Activity [41]: -3.8%
Activity [42]: 7.2%

IC50 [19]: > 87.5 µg/mL
SMILES: COc1ccc(Br)cc1C1=C(Br)C(=O)N(CC(C)C)C1(O)Cc1cccc(Cl)c1 (stereo not drawn)
Activity [1]: 35.9%
Activity [2]: 1.4%
Activity [3]: 3.1%
Activity [4]: 3.2%
Activity [5]: 0.6%
Activity [6]: 16.6%
Activity [7]: 24.3%
Activity [8]: 9.6%
Activity [9]: 38.2%
Activity [10]: 5.5%
Activity [11]: -3.1%
Activity [12]: -5.4%
Activity [13]: 35.1%
Activity [14]: 34.1%
Activity [15]: 15.4%
Activity [16]: -7.3%
Activity [17]: 10.3%
Activity [18]: -2%
inhibition [19]: Dose-dependent effect
Activity [20]: 0.1%
Activity [21]: -9%
Activity [22]: 16.9%
Activity [23]: 4.3%
Activity [24]: 30.3%
Activity [25]: 30.2%
Activity [26]: -6.6%
Activity [27]: 4.2%
Activity [28]: 7%
Activity [29]: -4.6%
Activity [30]: 1.1%
inhibition [31]: Dose-dependent effect
Activity [32]: 26.1%
Activity [33]: 6.1%
Activity [34]: 22.8%
Activity [35]: 17.5%
Activity [36]: 6.6%
Activity [37]: 12.1%
Activity [38]: 23.2%
Activity [39]: 25.8%
Activity [40]: 3.3%
Activity [41]: 20.9%
Activity [42]: 23.8%

IC50 [19]: > 87.5 µg/mL
SMILES: COc1ccc(C)cc1C1=C(Br)C(=O)N(CC(C)C)C1(O)Cc1cccc(Cl)c1 (stereo not drawn)
Activity [1]: -28.5%
Activity [2]: -7.9%
Activity [3]: 10.8%
Activity [4]: -9.6%
Activity [5]: 12.8%
Activity [6]: 5.4%
Activity [7]: 12%
Activity [8]: -11%
Activity [9]: -7.8%
Activity [10]: 2.4%
Activity [11]: -8.6%
Activity [12]: -1.3%
Activity [13]: -12.1%
Activity [14]: 2.4%
Activity [15]: -12.5%
Activity [16]: -1.6%
Activity [17]: 1.1%
Activity [18]: 9.7%
inhibition [19]: Dose-dependent effect
Activity [20]: -7%
Activity [21]: -2.6%
Activity [22]: -21%
Activity [23]: -10.6%
Activity [24]: -5%
Activity [25]: -7.3%
Activity [26]: -3.4%
Activity [27]: 4.3%
Activity [28]: -2.9%
Activity [29]: 6.7%
Activity [30]: 3%
inhibition [31]: Dose-dependent effect
Activity [32]: -31.2%
Activity [33]: 11.4%
Activity [34]: 0.9%
Activity [35]: 3.5%
Activity [36]: -7.6%
Activity [37]: -4.8%
Activity [38]: 1.2%
Activity [39]: -17.2%
Activity [40]: -11.6%
Activity [41]: 1.9%
Activity [42]: 3.4%
